BindingDB's records for doi:10.1128/aac.01536-06 (Public Health Research Institute, 2007)

Tests used:
1,3-beta-glucan synthase [1] = target: T1, 1,3-beta-glucan synthase (Candida albicans, UniProt O13423); assay: Inhibition of glucan synthase in Candida albicans ATCC 36082 in presence of 20% human serum
1,3-beta-glucan synthase [2] = target: T1, 1,3-beta-glucan synthase; assay: Inhibition of glucan synthase in Candida albicans ATCC 36082
1,3-beta-glucan synthase [3] = target: T1, 1,3-beta-glucan synthase; assay: Inhibition of glucan synthase in Candida albicans ATCC 90028 in presence of 50% human serum
1,3-beta-glucan synthase [4] = target: T1, 1,3-beta-glucan synthase; assay: Inhibition of glucan synthase in Candida albicans 36082 assessed as incorporation of [3H]uridine diphosphoglucose in presence of 50% serum
1,3-beta-glucan synthase [5] = target: T1, 1,3-beta-glucan synthase; assay: Inhibition of glucan synthase in Candida albicans SC5314 in presence of 20% human serum
1,3-beta-glucan synthase [6] = target: T1, 1,3-beta-glucan synthase; assay: Inhibition of glucan synthase in Candida albicans ATCC 36082 in presence of 50% human serum
1,3-beta-glucan synthase [7] = target: T1, 1,3-beta-glucan synthase; assay: Inhibition of glucan synthase in Candida albicans ATCC 90028 in presence of 20% human serum
1,3-beta-glucan synthase [8] = target: T1, 1,3-beta-glucan synthase; assay: Inhibition of glucan synthase in Candida albicans SC5314 in presence of 10% human serum
1,3-beta-glucan synthase [9] = target: T1, 1,3-beta-glucan synthase; assay: Inhibition of glucan synthase in Candida albicans SC5314 in presence of 50% human serum
1,3-beta-glucan synthase [10] = target: T1, 1,3-beta-glucan synthase; assay: Inhibition of glucan synthase in Candida albicans ATCC 36082 in presence of 10% human serum
1,3-beta-glucan synthase [11] = target: T1, 1,3-beta-glucan synthase; assay: Inhibition of glucan synthase in Candida albicans 36082 assessed as incorporation of [3H]uridine diphosphoglucose

T1 sequence (O13423 whole entry): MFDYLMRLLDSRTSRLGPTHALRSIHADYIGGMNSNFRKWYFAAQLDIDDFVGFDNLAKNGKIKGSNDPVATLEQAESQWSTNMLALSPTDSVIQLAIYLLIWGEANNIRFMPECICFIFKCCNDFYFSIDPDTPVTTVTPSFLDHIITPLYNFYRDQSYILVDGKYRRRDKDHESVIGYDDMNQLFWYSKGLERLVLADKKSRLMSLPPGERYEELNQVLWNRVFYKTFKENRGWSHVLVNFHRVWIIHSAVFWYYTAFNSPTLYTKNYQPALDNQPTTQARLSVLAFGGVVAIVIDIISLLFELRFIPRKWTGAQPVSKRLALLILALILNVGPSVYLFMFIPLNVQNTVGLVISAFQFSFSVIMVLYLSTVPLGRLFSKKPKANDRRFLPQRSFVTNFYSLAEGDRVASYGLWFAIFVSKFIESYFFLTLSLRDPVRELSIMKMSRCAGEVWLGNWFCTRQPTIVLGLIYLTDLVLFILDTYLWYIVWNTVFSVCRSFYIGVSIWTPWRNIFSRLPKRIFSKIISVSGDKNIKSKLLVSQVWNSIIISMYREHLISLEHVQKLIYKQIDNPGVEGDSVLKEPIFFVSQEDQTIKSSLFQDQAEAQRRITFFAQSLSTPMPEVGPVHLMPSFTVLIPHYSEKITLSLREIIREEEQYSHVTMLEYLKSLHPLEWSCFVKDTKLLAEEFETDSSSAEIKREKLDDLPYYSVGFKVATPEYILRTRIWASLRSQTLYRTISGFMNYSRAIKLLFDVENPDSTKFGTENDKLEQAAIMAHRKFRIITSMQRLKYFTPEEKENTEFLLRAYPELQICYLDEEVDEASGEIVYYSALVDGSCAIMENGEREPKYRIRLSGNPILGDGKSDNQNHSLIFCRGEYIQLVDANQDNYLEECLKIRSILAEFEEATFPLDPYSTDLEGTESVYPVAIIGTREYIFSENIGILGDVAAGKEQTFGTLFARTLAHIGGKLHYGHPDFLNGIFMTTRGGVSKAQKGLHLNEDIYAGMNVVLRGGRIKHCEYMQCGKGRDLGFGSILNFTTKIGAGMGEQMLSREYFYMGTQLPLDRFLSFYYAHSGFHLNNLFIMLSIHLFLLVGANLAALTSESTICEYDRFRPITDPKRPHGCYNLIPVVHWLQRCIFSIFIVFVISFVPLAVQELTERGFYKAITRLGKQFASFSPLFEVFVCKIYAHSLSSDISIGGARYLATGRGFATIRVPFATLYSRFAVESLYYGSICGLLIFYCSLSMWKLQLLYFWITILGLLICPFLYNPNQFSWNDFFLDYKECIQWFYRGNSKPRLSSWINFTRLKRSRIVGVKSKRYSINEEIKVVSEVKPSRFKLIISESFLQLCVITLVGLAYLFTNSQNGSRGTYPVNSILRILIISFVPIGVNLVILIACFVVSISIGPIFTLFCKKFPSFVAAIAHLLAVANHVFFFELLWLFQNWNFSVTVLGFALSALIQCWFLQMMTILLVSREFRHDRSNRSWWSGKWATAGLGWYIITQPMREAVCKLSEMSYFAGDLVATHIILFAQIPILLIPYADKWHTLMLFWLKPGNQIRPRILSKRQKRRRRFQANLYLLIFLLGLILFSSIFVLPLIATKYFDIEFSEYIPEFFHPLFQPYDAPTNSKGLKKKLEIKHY

CCC(C)CC(C)CCCCCCCCC(=O)N[C@H]1C[C@@H](O)[C@@H](NCCN)NC(=O)[C@@H]2[C@@H](O)CCN2C(=O)[C@H]([C@H](O)CCN)NC(=O)[C@H]([C@H](O)[C@@H](O)c2ccc(O)cc2)NC(=O)[C@@H]2C[C@@H](O)CN2C(=O)[C@H]([C@@H](C)O)NC1=O (stereo partly specified) [CHEBI:474180]
IC50 (1,3-beta-glucan synthase [1]): 5.3 nM | IC50 (1,3-beta-glucan synthase [2]): 0.9 nM | IC50 (1,3-beta-glucan synthase [3]): 6.3 nM | IC50 (1,3-beta-glucan synthase [4]): 6.2 nM | IC50 (1,3-beta-glucan synthase [5]): 37 nM | IC50 (1,3-beta-glucan synthase [6]): 8.7 nM | IC50 (1,3-beta-glucan synthase [7]): 2.1 nM | IC50 (1,3-beta-glucan synthase [8]): 27 nM | IC50 (1,3-beta-glucan synthase [9]): 81 nM | IC50 (1,3-beta-glucan synthase [10]): 2.8 nM | IC50 (1,3-beta-glucan synthase [11]): 0.33 nM
